Values of other authors in patent EP1928431B1, “CONTROLLED RELEASE PHARMACEUTICAL COMPOSITION CONTAINING CARVEDILOL” (Egis Gyógyszergyár Nyilvánosan Múködö Részvénytársaság, priority 2005, dated 2007).
≈ marks a conversion by molar mass, not a printed value. Like-named read-outs stand apart in the source and are kept apart here.

Assays:
[1] = orally administered and absorbed taken as 100%
[2] = WO01/35958
[3] = in water

absorption ([1]; administered in ileum): 28%
absorption ([1]; administered in the colon): 7%
absorption ([1]; administered in the jejunum): 56%
solubility in water [2]: 10 µg/mL (≈ 24.6 µM)
solubility ([3]; pH 1): 1000 µg/mL (≈ 2460 µM)
solubility ([3]; pH 8): 10 µg/mL (≈ 24.6 µM)
Structure (SMILES): COc1ccccc1OCCNCC(O)COc1cccc2[nH]c3ccccc3c12 (stereo not drawn) [carvedilol, 1-[9'H-carbazol-4'-yloxy]-3-[{2"-(2""-<methoxy>-phenoxy)-ethyl}-amino]-propan-2-ol]
